Test results reported in patent publication US8097422B2, “Kir channel modulators” (Salk Institute for Biological Studies, priority 2007, dated 2012).

Target: T1, Kir2 homotetramer channels (Mus musculus, UniProt P35561)
T1 construct: expressed in transfected cells; host or cells: HEK293
Test: patch-clamp determination of ion transport activity: inhibition of Kir2 channels (Kir2.1 expressed in HEK293 cells)
Assay type: cell-based
Settings: as stated in the detailed description; read-out: IC50 for inhibition of Kir 2.1 channels
From the text: It has been determined that inwardly rectifying potassium (Kir) channels are regulated directly by small molecule alcohol compounds. Three-dimensional crystallographic analysis of Kir channels has elucidated atomic details of binding pocket interactions with 2-methyl-2,4-pentanediol (MPD). MPD inhibits Kir2 channel activity and activates Kir3 channel activity. Amino acid substitutions in this hydrophobic pocket of the channel protein may alter the response to MPD. As determined by patch-clamp determinations of ion transport activity, a racemic mixture of 2-methyl-2,4-pentanediol, (±)MPD, activates Kir3 channels with an EC50 of >200 mM and inhibits Kir2 homotetramer channels with an IC50 of ˜200 mM. […] Bupivacaine inhibits Kir3.1/3.4 and Kir3.1/3.2 channels with an IC50 of ˜20-40 micromolar.
The effect of MPD on Kir2 channel activity was analyzed further. […] The fractional current remaining is plotted as a function of MPD concentration. The response for each cell was fit with the Hill equation. The average IC50 and Hill coefficients are shown (n=6).

T1 sequence (P35561 whole entry): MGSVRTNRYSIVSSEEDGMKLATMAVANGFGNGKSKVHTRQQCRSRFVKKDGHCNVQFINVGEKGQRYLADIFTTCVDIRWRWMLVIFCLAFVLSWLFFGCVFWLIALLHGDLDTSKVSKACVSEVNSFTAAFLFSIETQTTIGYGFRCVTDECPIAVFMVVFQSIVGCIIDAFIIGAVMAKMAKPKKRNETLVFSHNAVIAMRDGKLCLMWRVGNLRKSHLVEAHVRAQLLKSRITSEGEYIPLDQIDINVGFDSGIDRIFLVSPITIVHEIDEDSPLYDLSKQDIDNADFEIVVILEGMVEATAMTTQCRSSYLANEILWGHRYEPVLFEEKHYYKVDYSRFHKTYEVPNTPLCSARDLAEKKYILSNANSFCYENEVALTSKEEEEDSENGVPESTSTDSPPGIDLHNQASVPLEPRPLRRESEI

Work on `CC(O)CC(C)(C)O` (racemic) [MPD, 2-methyl-2,4-pentanediol] yielded an IC50 of roughly 100 mM.
